System: 598228-144-R-J1-PDC complex spheroid viability
Test: Anticancer human tumor 598228-144-R-J1-PDC patient-derived serous endometrial adenocarcinoma cell line growth inhibition [GQUAD]
Settings: for IC50: curve of first compound; for viability, T/C: stronger effect = lower value; active = viability on the fitted dose curve at most 10% of control; inactive = the rest
Outline: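 Tumor cells were grown as complex spheroids with HUVEC endothelial cells and mesenchymal stem cells as stroma. G-quadruplex stabilizers were combined with targeted agents over half-log dilutions from near the clinical Cmax, or from 10 microM.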

[1] = second compound 0.0316 µM, first compound 0.0316 µM
[2] = second compound 0.0316 µM, first compound 0.1 µM
[3] = second compound 0.0316 µM, first compound 0.316 µM
[4] = second compound 0.0316 µM, first compound 1 µM
[5] = second compound 0.0316 µM, first compound 3.16 µM
[6] = second compound 0.0316 µM, first compound 10 µM
[7] = second compound 0.1 µM, first compound 0.0316 µM
[8] = second compound 0.1 µM, first compound 0.1 µM
[9] = second compound 0.1 µM, first compound 0.316 µM
[10] = second compound 0.1 µM, first compound 1 µM
[11] = second compound 0.1 µM, first compound 3.16 µM
[12] = second compound 0.1 µM, first compound 10 µM
[13] = second compound 0.316 µM, first compound 0.0316 µM
[14] = second compound 0.316 µM, first compound 0.1 µM
[15] = second compound 0.316 µM, first compound 0.316 µM
[16] = second compound 0.316 µM, first compound 1 µM
[17] = second compound 0.316 µM, first compound 3.16 µM
[18] = second compound 0.316 µM, first compound 10 µM
[19] = second compound 1 µM, first compound 0.0316 µM
[20] = second compound 1 µM, first compound 0.1 µM
[21] = second compound 1 µM, first compound 0.316 µM
[22] = second compound 1 µM, first compound 1 µM
[23] = second compound 1 µM, first compound 3.16 µM
[24] = second compound 1 µM, first compound 10 µM
[25] = second compound 3.16 µM, first compound 0.0316 µM
[26] = second compound 3.16 µM, first compound 0.1 µM
[27] = second compound 3.16 µM, first compound 0.316 µM
[28] = second compound 3.16 µM, first compound 1 µM
[29] = second compound 3.16 µM, first compound 3.16 µM
[30] = second compound 3.16 µM, first compound 10 µM
[31] = second compound 10 µM, first compound 0.0316 µM
[32] = second compound 10 µM, first compound 0.1 µM
[33] = second compound 10 µM, first compound 0.316 µM
[34] = second compound 10 µM, first compound 1 µM
[35] = second compound 10 µM, first compound 3.16 µM
[36] = second compound 10 µM, first compound 10 µM
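Also: spheroids exposed to the agents for one week before reading.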
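For viability, T/C in this document: percent of vehicle DMSO control viability so 100% = untreated growth.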

C#Cc1c(F)ccc2cc(O)cc(-c3ncc4c(N5CC6CCC(C5)N6)nc(OCC56CCCN5CC(F)C6)nc4c3F)c12 (stereo unspecified) + CN(C)c1ccc(Nc2c3ccc(NC(=O)CCN4CCCC4)cc3nc3cc(NC(=O)CCN4CCCC4)ccc23)cc1
4610 nM: IC50 (second compound 10 µM)
inactive: viability, T/C [1] 92.2% | viability, T/C [2] 104% | viability, T/C [3] 104% | viability, T/C [4] 88.5% | viability, T/C [5] 88.9% | viability, T/C [6] 101% | viability, T/C [7] 103% | viability, T/C [8] 118% | viability, T/C [9] 104% | viability, T/C [10] 100% | viability, T/C [11] 88.5% | viability, T/C [12] 94.9% | viability, T/C [13] 102% | viability, T/C [14] 94.1% | viability, T/C [15] 115% | viability, T/C [16] 83.5% | viability, T/C [17] 102% | viability, T/C [18] 88% | viability, T/C [19] 87% | viability, T/C [20] 102% | viability, T/C [21] 110% | viability, T/C [22] 104% | viability, T/C [23] 98.9% | viability, T/C [24] 92.9% | viability, T/C [25] 106% | viability, T/C [26] 101% | viability, T/C [27] 93.7% | viability, T/C [28] 89.8% | viability, T/C [29] 83.3% | viability, T/C [30] 84.1% | viability, T/C [31] 86.1% | viability, T/C [32] 89.3% | viability, T/C [33] 93.9% | viability, T/C [34] 66% | viability, T/C [35] 64.2% | viability, T/C [36] 28.7%
> 10000 nM: IC50 (second compound 0.0316 µM) | IC50 (second compound 0.1 µM) | IC50 (second compound 0.316 µM) | IC50 (second compound 1 µM) | IC50 (second compound 3.16 µM)

CC(=O)O[C@H]1C(=O)[C@@]2(C)[C@H]([C@H](OC(=O)c3ccccc3)[C@]3(O)C[C@H](OC(=O)[C@H](O)[C@@H](NC(=O)c4ccccc4)c4ccccc4)C(C)=C1C3(C)C)[C@]1(OC(C)=O)CO[C@@H]1C[C@@H]2O + CN(C)c1ccc(Nc2c3ccc(NC(=O)CCN4CCCC4)cc3nc3cc(NC(=O)CCN4CCCC4)ccc23)cc1
inactive: viability, T/C [1] 49.4% | viability, T/C [2] 43.3% | viability, T/C [3] 44.2% | viability, T/C [4] 32.9% | viability, T/C [5] 37.3% | viability, T/C [6] 53.6% | viability, T/C [7] 47.6% | viability, T/C [8] 43.1% | viability, T/C [9] 35% | viability, T/C [10] 38.2% | viability, T/C [11] 33.7% | viability, T/C [12] 35.4% | viability, T/C [13] 47.6% | viability, T/C [14] 40.9% | viability, T/C [15] 40.7% | viability, T/C [16] 34.6% | viability, T/C [17] 47% | viability, T/C [18] 49.4% | viability, T/C [19] 51.8% | viability, T/C [20] 38.7% | viability, T/C [21] 41.9% | viability, T/C [22] 42.1% | viability, T/C [23] 45.4% | viability, T/C [24] 37% | viability, T/C [25] 51.6% | viability, T/C [26] 34.6% | viability, T/C [27] 41.6% | viability, T/C [28] 38.9% | viability, T/C [29] 33.1% | viability, T/C [30] 38.1% | viability, T/C [31] 29.1% | viability, T/C [32] 29.6% | viability, T/C [33] 29.1% | viability, T/C [34] 25.2% | viability, T/C [35] 19.4% | viability, T/C [36] 30.9%
< 31.6 nM: IC50 (second compound 0.0316 µM) | IC50 (second compound 0.1 µM) | IC50 (second compound 0.316 µM) | IC50 (second compound 1 µM) | IC50 (second compound 3.16 µM) | IC50 (second compound 10 µM)

CCc1c2c(nc3ccc(O)cc13)-c1cc3c(c(=O)n1C2)COC(=O)[C@]3(O)CC + CN(C)c1ccc(Nc2c3ccc(NC(=O)CCN4CCCC4)cc3nc3cc(NC(=O)CCN4CCCC4)ccc23)cc1
15 nM: IC50 (second compound 3.16 µM)
inactive: viability, T/C (second compound 0.0316 µM, first compound 0.000999 µM) 68.8% | viability, T/C (second compound 0.0316 µM, first compound 0.00316 µM) 56.2% | viability, T/C (second compound 0.0316 µM, first compound 0.00999 µM) 45.6% | viability, T/C [1] 39.7% | viability, T/C (second compound 0.0316 µM, first compound 0.0999 µM) 30.5% | viability, T/C [3] 18.8% | viability, T/C (second compound 0.1 µM, first compound 0.000999 µM) 65.3% | viability, T/C (second compound 0.1 µM, first compound 0.00316 µM) 53.1% | viability, T/C (second compound 0.1 µM, first compound 0.00999 µM) 56.1% | viability, T/C [7] 41.2% | viability, T/C (second compound 0.1 µM, first compound 0.0999 µM) 25.3% | viability, T/C [9] 15.5% | viability, T/C (second compound 0.316 µM, first compound 0.000999 µM) 70.2% | viability, T/C (second compound 0.316 µM, first compound 0.00316 µM) 50.4% | viability, T/C (second compound 0.316 µM, first compound 0.00999 µM) 45.7% | viability, T/C [13] 55.3% | viability, T/C (second compound 0.316 µM, first compound 0.0999 µM) 27.7% | viability, T/C [15] 16.9% | viability, T/C (second compound 1 µM, first compound 0.000999 µM) 50.5% | viability, T/C (second compound 1 µM, first compound 0.00316 µM) 42% | viability, T/C (second compound 1 µM, first compound 0.00999 µM) 49.9% | viability, T/C [19] 49% | viability, T/C (second compound 1 µM, first compound 0.0999 µM) 27.7% | viability, T/C [21] 15.9% | viability, T/C (second compound 3.16 µM, first compound 0.000999 µM) 58.6% | viability, T/C (second compound 3.16 µM, first compound 0.00316 µM) 57.2% | viability, T/C (second compound 3.16 µM, first compound 0.00999 µM) 59.1% | viability, T/C [25] 37.4% | viability, T/C (second compound 3.16 µM, first compound 0.0999 µM) 26% | viability, T/C [27] 16.8% | viability, T/C (second compound 10 µM, first compound 0.000999 µM) 60.6% | viability, T/C (second compound 10 µM, first compound 0.00316 µM) 33.6% | viability, T/C (second compound 10 µM, first compound 0.00999 µM) 37.7% | viability, T/C [31] 45.6% | viability, T/C (second compound 10 µM, first compound 0.0999 µM) 23.5% | viability, T/C [33] 10.5%
7.57 nM: IC50 (second compound 0.0316 µM)
12.1 nM: IC50 (second compound 0.316 µM)
< 0.999 nM: IC50 (second compound 1 µM) | IC50 (second compound 10 µM)
13.5 nM: IC50 (second compound 0.1 µM)
